One assay is described as follows: cells. Format: functional, cell-based.
Assay [1] is described as follows: HEK-293T viability loss after treatment – luminescence, T-cell screen hits, cytotoxicity control for TCR NF-kB inhibitor project, dose response (AID 489026).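 Note: cells exposed to compound about 14 hours before the viability readout.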 Format: functional, cell-based.
Assay [2] relates to HEK293. The experiment in a line: HEK293T cell viability loss, resazurin readout – resazurin fluorescence, cytotoxicity control for NF-kB activator project, SAR follow-up (AID 493251). The conditions noted are these: Homo sapiens. Format: functional, cell-based.
Assay [3] has as its system HEK293. In words: SAR Analysis of small molecule inhibitors of T-cell specific antigen receptor-induced NF-kB activation in a HEK-293T cell line using a luminescence assay - Set 2. [Related pubchem assays (depositor defined):AID435003, AID435012, AID489026]. Format: functional, cell-based. The conditions noted are these: Homo sapiens.
A short description of assay [4]: reduction of Shn3 3'UTR-driven luciferase in osteoblasts – cell-based, Clone20 osteoblasts, firefly luciferase, cherry-picked, dose response (AID 624132).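 Note: firefly luciferase luminescence from reporter carrying the Shn3 3'UTR in osteoblasts.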 Format: functional.
A further assay concerns the target T1, Insulin-degrading enzyme (Homo sapiens, UniProt P14735).
T1 sequence (P14735 whole entry): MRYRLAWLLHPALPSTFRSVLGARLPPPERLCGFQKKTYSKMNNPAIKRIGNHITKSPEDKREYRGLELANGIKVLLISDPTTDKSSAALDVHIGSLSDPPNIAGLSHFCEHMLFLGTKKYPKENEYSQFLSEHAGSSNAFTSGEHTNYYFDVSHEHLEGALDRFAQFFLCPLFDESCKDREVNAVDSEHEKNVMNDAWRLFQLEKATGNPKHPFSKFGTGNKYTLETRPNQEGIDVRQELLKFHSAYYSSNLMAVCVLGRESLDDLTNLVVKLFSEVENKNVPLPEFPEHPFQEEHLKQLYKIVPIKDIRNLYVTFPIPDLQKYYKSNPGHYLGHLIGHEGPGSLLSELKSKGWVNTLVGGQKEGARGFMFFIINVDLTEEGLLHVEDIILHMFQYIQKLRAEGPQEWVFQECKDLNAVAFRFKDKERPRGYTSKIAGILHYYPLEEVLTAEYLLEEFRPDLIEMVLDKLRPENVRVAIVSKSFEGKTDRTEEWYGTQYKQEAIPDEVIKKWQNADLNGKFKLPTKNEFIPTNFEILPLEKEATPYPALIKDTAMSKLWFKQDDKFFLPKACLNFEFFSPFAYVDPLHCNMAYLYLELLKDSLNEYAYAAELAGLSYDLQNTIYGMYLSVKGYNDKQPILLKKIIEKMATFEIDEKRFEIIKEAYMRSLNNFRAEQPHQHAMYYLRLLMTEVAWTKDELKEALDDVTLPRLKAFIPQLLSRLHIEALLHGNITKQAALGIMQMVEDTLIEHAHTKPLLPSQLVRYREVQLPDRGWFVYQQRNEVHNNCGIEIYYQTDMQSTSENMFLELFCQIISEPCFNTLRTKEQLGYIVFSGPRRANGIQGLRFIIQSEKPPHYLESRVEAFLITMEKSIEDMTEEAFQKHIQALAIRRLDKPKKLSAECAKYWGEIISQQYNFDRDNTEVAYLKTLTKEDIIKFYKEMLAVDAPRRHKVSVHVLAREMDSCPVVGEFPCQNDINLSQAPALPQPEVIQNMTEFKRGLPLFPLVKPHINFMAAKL
The experiment in a line: recombinant IDE activation, cell-free – biochemical, fluorescence polarization, counter-screen for IDE activator project, dose response (AID 588681). (In fluorescence polarisation assays a small probe gives low polarisation when free and higher when bound to something large.)

The target of assay [5] is SWI/SNF-related matrix-associated actin-dependent regulator of chromatin subfamily A member 2 (Homo sapiens, UniProt P51531). In words: Luminescence-based cell-based high throughput dose response assay to identify activators of the function of SWI/SNF related, matrix associated, actin dependent regulator of chromatin, subfamily a, member 2 (SMARCA2, BRM). Format: functional.
SWI/SNF-related matrix-associated actin-dependent regulator of chromatin subfamily A member 2, sequence (P51531 whole entry): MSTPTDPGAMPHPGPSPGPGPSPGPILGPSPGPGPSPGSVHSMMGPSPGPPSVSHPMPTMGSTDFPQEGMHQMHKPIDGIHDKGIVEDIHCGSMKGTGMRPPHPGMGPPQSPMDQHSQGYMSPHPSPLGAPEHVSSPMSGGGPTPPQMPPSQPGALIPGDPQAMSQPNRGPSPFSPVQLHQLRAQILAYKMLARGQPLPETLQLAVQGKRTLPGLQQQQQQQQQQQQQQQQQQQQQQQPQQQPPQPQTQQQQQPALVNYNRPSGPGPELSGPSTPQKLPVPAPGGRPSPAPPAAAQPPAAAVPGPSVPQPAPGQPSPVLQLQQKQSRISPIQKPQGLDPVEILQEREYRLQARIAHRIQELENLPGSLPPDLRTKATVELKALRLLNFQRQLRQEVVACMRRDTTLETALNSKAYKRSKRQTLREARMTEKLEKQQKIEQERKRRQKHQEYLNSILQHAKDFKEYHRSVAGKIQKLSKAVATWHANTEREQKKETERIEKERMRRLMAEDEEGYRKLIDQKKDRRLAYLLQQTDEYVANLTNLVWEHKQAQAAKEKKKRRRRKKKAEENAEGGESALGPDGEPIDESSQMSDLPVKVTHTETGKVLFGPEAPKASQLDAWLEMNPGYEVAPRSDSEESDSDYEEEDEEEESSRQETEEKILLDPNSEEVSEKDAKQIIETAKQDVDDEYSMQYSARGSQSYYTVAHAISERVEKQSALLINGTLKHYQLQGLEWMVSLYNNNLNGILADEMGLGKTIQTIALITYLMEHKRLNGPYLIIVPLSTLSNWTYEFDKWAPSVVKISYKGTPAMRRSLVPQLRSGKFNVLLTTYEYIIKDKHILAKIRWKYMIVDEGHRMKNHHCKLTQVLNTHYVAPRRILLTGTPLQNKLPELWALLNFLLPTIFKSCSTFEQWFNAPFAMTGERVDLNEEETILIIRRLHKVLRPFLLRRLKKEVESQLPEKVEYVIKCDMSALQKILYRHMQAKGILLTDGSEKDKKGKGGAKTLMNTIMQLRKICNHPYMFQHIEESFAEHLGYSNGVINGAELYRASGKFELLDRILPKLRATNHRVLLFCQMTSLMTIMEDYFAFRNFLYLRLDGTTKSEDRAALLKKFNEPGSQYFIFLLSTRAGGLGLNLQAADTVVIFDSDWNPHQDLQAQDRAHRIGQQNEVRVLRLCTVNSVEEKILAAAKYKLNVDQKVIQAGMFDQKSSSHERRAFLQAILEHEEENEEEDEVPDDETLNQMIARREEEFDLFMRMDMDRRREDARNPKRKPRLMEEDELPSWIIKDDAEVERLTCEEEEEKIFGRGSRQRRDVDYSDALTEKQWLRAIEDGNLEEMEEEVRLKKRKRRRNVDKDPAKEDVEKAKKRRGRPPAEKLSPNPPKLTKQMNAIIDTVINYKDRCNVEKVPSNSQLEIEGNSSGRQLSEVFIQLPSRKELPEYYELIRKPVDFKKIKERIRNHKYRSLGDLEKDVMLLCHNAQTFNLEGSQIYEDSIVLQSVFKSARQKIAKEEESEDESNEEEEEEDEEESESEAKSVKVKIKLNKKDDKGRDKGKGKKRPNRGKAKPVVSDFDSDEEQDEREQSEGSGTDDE

The nature of assay [6]: Counterscreen for activators of the function of SWI/SNF related, matrix associated, actin dependent regulator of chromatin, subfamily a, member 2 (SMARCA2, BRM): Luminescence-based cell-based high throughput dose response assay to identify non-selective compounds using the VP16 reporter assay. Format: functional. (Counterscreens check selectivity or assay interference.)
The target of a further assay is T2, Streptokinase A (Streptococcus pyogenes serotype M1, UniProt P10520).
T2 sequence (P10520 whole entry): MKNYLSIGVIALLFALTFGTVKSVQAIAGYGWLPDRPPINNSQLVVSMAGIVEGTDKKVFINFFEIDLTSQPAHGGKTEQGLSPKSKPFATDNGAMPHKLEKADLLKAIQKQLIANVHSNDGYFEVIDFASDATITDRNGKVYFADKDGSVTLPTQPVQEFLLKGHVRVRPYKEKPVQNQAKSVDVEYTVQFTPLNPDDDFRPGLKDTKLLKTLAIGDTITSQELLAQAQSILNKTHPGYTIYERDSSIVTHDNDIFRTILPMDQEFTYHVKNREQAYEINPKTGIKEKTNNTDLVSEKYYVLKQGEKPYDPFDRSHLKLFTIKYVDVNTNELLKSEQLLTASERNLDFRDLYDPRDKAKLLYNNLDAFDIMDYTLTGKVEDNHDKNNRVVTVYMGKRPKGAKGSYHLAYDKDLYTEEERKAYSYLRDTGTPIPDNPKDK
The experiment in a line: viability-normalized secreted streptokinase activity reduction – plasminogen activation absorbance, OD405, dose response (AID 1914).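 Note: secreted streptokinase activity via plasminogen activation per viability signal from cell pellet.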 Format: functional, Streptococcus pyogenes M1 GAS.

Assay [7] can be described thus: Luminescence Cell-Based Dose Retest to Confirm Inhibitors of Cancer Stem Cells. [Related pubchem assays (depositor defined):AID2717, AID2721]. Format: functional. The note with it: Homo sapiens.

The structures appear in SMILES notation. Active and inactive are the calls of the source. A value given as a limit tells only on which side of the number the result lay.

In general, EC50 refers to the concentration giving half of the maximal effect. A word on the IC50: it is the concentration needed to halve the response being measured. The AC50 is the concentration at which the activity in the assay is half-maximal. For `CCCCC(=O)NC(c1ccc(Cl)cc1)c1ccc2cccnc2c1O` (stereo not given), in the assay “cells”, the EC50 is 59.9 µM (active). Moreover, the IC50 in assay [1] is > 80 µM (inactive); in the assay on HEK293 [2], 23.3 µM (inactive); in the assay with HEK293 [3] it was 4.57 µM (active). In [4], the AC50 is 772 nM (active).
`COc1ccc2noc3c2c1C(=O)c1ccccc1-3`: the EC50 on Insulin-degrading enzyme is > 54.7 µM (inactive); in [5], > 91.2 µM (inactive); in assay [6] it was > 91.2 µM (inactive).
For the molecule `O=C(N/N=C/c1ccccc1O)/C(O)=C\C1=NC2(CCCC2)Cc2ccccc21`, the EC50 on Streptokinase A is on record as > 150 µM (not active).
`CCCCC(=O)NC(c1ccco1)c1cc(Cl)c2cccnc2c1O` (stereo not given): the AC50 in assay [7] was 3.33 µM (active).
